Values quoted from earlier work, collected in US11207317B2, “Methylnaltrexone nasal formulations, methods of making, and use thereof” (AptaPharma Inc., priority 2012, dated 2021).

Tested on: opioid-induced reduction in bowel motility
Settings: healthy volunteers; intravenous or oral administration

SMILES: C[N@+]1(CC2CC2)CC[C@]23c4c5ccc(O)c4O[C@H]2C(=O)CC[C@@]3(O)[C@H]1C5 [methylnaltrexone, Methylnaltrexone]
- effect on opioid-induced reduction in bowel motility: reverse opioid-induced reduction in bowel motility
